These are literature values, as cited in PubChem BioAssay AID1259409 (Chemical Carcinogenesis Research Information System (CCRIS), 2018).

In this series the test system is rodent chemically induced tumor inhibition, incidence and multiplicity. Briefly: CCRIS tumor inhibitor studies. The conditions noted are these: Route [Inhibitor]: ORAL, Species: RAT, Promoter: NONE USED.

Regarding `O=C1O[C@H]([C@@H](O)CO)C(O)=C1O`, the “tumour outcome (control, treated, inhibition, significance)” value (Carcinogen: N-ETHYL-N-(4-HYDROXYBUTYL)NITROSAMINE, 54897-62-0, Dose [Inhibitor]: 5% IN BASAL DIET ADMINISTERED SIMULTANEOUSLY WITH CARCINOGEN DOSE FOR 20 WK (STUDY DURATION: 20 WK), Strain/Sex: F344/MALE, Target Tissue: Type of Lesion: BLADDER: PAPILLOMA, Dose [Carcinogen]: 0.021% IN DRINKING WATER FOR 20 WK) is on record as 14/15 (93%), 12/15 (80%), 14%, not significant; the “tumour outcome (control, treated, inhibition, significance)” value (Carcinogen: N-METHYL-N-NITROSOUREA, 684-93-5, Dose [Inhibitor]: 0, 5% IN DIET BEGINNING POST CARCINOGEN TREATMENT AND CONTINUING FOR 23 WK (STUDY DURATION: 25 WK), Strain/Sex: F344/MALE, Target Tissue: Type of Lesion: FORESTOMACH: PAPILLOMA, Dose [Carcinogen]: 50 MG/KG 4/2 WK) is on record as 8/17 (47%), 7/20 (35%), 26%, not calculated; the “tumour outcome (control, treated, inhibition, significance)” value (Carcinogen: N-METHYL-N-NITROSOUREA, 684-93-5, Dose [Inhibitor]: 0, 5% IN DIET BEGINNING POST CARCINOGEN TREATMENT AND CONTINUING FOR 23 WK (STUDY DURATION: 25 WK), Strain/Sex: F344/MALE, Target Tissue: Type of Lesion: FORESTOMACH: SQUAMOUS CELL CARCINOMA, Dose [Carcinogen]: 50 MG/KG 4/2 WK) is recorded as 2/17 (12%), 2/20 (10%), 17%, not calculated; the “tumour outcome (control, treated, inhibition, significance)” value (Carcinogen: N-METHYL-N-NITROSOUREA, 684-93-5, Dose [Inhibitor]: 0, 5% IN DIET BEGINNING POST CARCINOGEN TREATMENT AND CONTINUING FOR 23 WK (STUDY DURATION: 25 WK), Strain/Sex: F344/MALE, Target Tissue: Type of Lesion: HEMATOPOIETIC SYSTEM: LYMPHOMA OR LEUKEMIA, Dose [Carcinogen]: 50 MG/KG 4/2 WK) is 3/17 (18%), 4/20 (20%), -11%, not calculated; the “tumour outcome (control, treated, inhibition, significance)” value (Carcinogen: N-METHYL-N-NITROSOUREA, 684-93-5, Dose [Inhibitor]: 0, 5% IN DIET BEGINNING POST CARCINOGEN TREATMENT AND CONTINUING FOR 23 WK (STUDY DURATION: 25 WK), Strain/Sex: F344/MALE, Target Tissue: Type of Lesion: SMALL INTESTINE: ADENOCARCINOMA, Dose [Carcinogen]: 50 MG/KG 4/2 WK) is reported as 9/17 (53%), 0/20 (0%), 100%, not calculated; the “tumour outcome (control, treated, inhibition, significance)” value (Carcinogen: N-METHYL-N-NITROSOUREA, 684-93-5, Dose [Inhibitor]: 0, 5% IN DIET BEGINNING POST CARCINOGEN TREATMENT AND CONTINUING FOR 23 WK (STUDY DURATION: 25 WK), Strain/Sex: F344/MALE, Target Tissue: Type of Lesion: SMALL INTESTINE: ADENOMA, Dose [Carcinogen]: 50 MG/KG 4/2 WK) is 10/17 (59%), 16/20 (80%), -36%, not calculated. Also, the “tumour outcome (control, treated, inhibition, significance)” value is, setting by setting: (Carcinogen: N-METHYL-N-NITROSOUREA, 684-93-5, Dose [Inhibitor]: 0, 5% IN DIET BEGINNING POST CARCINOGEN TREATMENT AND CONTINUING FOR 23 WK (STUDY DURATION: 25 WK), Strain/Sex: F344/MALE, Target Tissue: Type of Lesion: THYROID: ADENOCARCINOMA, Dose [Carcinogen]: 50 MG/KG 4/2 WK) 1/17 (6%), 0/20 (0%), 100%, not calculated; (Carcinogen: N-METHYL-N-NITROSOUREA, 684-93-5, Dose [Inhibitor]: 0, 5% IN DIET BEGINNING POST CARCINOGEN TREATMENT AND CONTINUING FOR 23 WK (STUDY DURATION: 25 WK), Strain/Sex: F344/MALE, Target Tissue: Type of Lesion: THYROID: ADENOMA, Dose [Carcinogen]: 50 MG/KG 4/2 WK) 3/17 (18%), 6/20 (30%), -67%, not calculated; (Carcinogen: N-METHYL-N-NITROSOUREA, 684-93-5, Dose [Inhibitor]: 0, 5% IN DIET BEGINNING POST CARCINOGEN TREATMENT AND CONTINUING FOR 23 WK (STUDY DURATION: 25 WK), Strain/Sex: F344/MALE, Target Tissue: Type of Lesion: TONGUE: PAPILLOMA, Dose [Carcinogen]: 50 MG/KG 4/2 WK) 2/17 (12%), 4/20 (20%), -67%, not calculated; (Carcinogen: N-METHYL-N-NITROSOUREA, 684-93-5, Dose [Inhibitor]: 0, 5% IN DIET BEGINNING POST CARCINOGEN TREATMENT AND CONTINUING FOR 23 WK (STUDY DURATION: 25 WK), Strain/Sex: F344/MALE, Target Tissue: Type of Lesion: TONGUE: SQUAMOUS CELL CARCINOMA, Dose [Carcinogen]: 50 MG/KG 4/2 WK) 2/17 (12%), 2/20 (10%), 17%, not calculated; (Carcinogen: N-METHYL-N-NITROSOUREA, 684-93-5, Dose [Inhibitor]: 0, 5% IN DIET BEGINNING POST CARCINOGEN TREATMENT AND CONTINUING FOR 23 WK (STUDY DURATION: 25 WK), Strain/Sex: F344/MALE, Target Tissue: Type of Lesion: URINARY BLADDER: PAPILLOMA, Dose [Carcinogen]: 50 MG/KG 4/2 WK) 2/17 (12%), 10/20 (50%), -316%, not calculated; (Carcinogen: N-METHYL-N-NITROSOUREA, 684-93-5, Dose [Inhibitor]: 1% IN 20% FAT DIET DAILY STARTING 2 WK BEFORE START OF CARCINOGEN TREATMENT AND CONTINUING FOR DURATION OF STUDY (STUDY, Strain/Sex: F344/FEMALE, Target Tissue: Type of Lesion: COLON: ADENOMA, ADENOCARCINOMA, Dose [Carcinogen]: 2 MG 2/WK FOR 2 WK) 42%, 46%, -10%, not significant. Further, the outcome (Carcinogen: N-METHYL-N-NITROSOUREA, 684-93-5, Dose [Inhibitor]: 0, 5% IN DIET BEGINNING POST CARCINOGEN TREATMENT AND CONTINUING FOR 23 WK (STUDY DURATION: 25 WK), Strain/Sex: F344/MALE, Target Tissue: Type of Lesion: URINARY BLADDER: TRANSITIONAL CELL CARCINOMA, Dose [Carcinogen]: 50 MG/KG 4/2 WK) is 0/17 (0%), 2/20 (10%), -100%, not calculated.
